In patent publication US11530237B2, “Compositions and methods for treating CNS disorders” (Sage Therapeutics, Inc., priority 2014, dated 2022):

Key:
[1] = molecular target: [35S]-TBPS binding, rat brain cortical membranes; experiment: Steroid inhibition of TBPS binding ([35S]-TBPS radioligand displacement); conditions: 3 nM [35S]-TBPS, 5 μM GABA
Method: TBPS binding assays using rat brain cortical membranes in the presence of 5 μM GABA has been described (Gee et al, J. Pharmacol. Exp. Then 1987, 241, 346-353; Hawkinson et al, Mol. Pharmacol. 1994, 46, 977-985; Lewin, A. H et al., Mol. Pharmacol. 1989, 35, 189-194).
Briefly, cortices are rapidly removed following decapitation of carbon dioxide-anesthetized Sprague-Dawley rats (200-250 g). The cortices are homogenized in 10 volumes of […] using a glass/teflon homogenizer and centrifuged at 1500×g for 10 min at 4° C. The resultant supernatants are centrifuged at 10,000×g for 20 min at 4° C. to obtain the P2 pellets. The P2 pellets are resuspended in 200 mM NaCl/50 mM Na—K phosphate pH 7.4 buffer and centrifuged at 10,000×g for 10 min at 4° C. This washing procedure is repeated twice and the pellets are resuspended in 10 volumes of buffer. Aliquots (100 μL) of the membrane suspensions are incubated with 3 nM [^35S]-TBPS and 5 μL aliquots of test drug dissolved in dimethyl sulfoxide (DMSO) (final 0.5%) in the presence of 5 μM GABA. The incubation is brought to a final volume of 1.0 mL with buffer. […] Following a 90 min incubation at room temp, the assays are terminated by filtration through glass fiber filters (Schleicher and Schuell No. 32) using a cell harvester (Braudel) and rinsed three times with ice-cold buffer. Filter bound radioactivity is measured by liquid scintillation spectrometry. Non-linear curve fitting of the overall data for each drug averaged for each concentration is done using Prism (GraphPad).
Various compounds are or can be screened to determine their potential as modulators of [^35S]-TBPS binding in vitro. These assays are or can be performed in accordance with the above discussed procedures.

[2] = molecular target: α1β2γ2 GABAA receptors (Homo sapiens (Human), UniProt P14867+P47870); experiment: Patch clamp electrophysiology (QPatch) of recombinant α1β2γ2 GABAA receptors in LTK cells; format: cell-based; conditions: 10 μM test article, GABA EC20 = 2 μM, read-out: GABA (α1β2γ2) Qpatch in Ltk, % efficacy at 10 μM
Method: Cellular electrophysiology is used to measure the pharmacological properties of our GABAA receptor modulators in heterologous cell systems. Each compound is tested for its ability to affect GABA mediated currents at a suhmaximal agonist dose (GABA EC20=2 μM). LTK cells are stably transfected with the α1β2γ2 subunits of the GABA receptor and CHO cells are transiently transfected with the α4β3δ subunits via the Lipofecatamine method. Cells were passaged at a confluence of about 50-80% and then seeded onto 35 mm sterile culture dishes containing 2 ml culture complete medium without antibiotics or antimycotics. Confluent clusters of cells are electrically coupled (Pritchett et al., Science, 1988, 242, 1306-1308). Because responses in distant cells are not adequately voltage clamped and because of uncertainties about the extent of coupling (Verdoom et al., Neuron 1990, 4, 919-928), cells were cultivated at a density that enables the recording of single cells (without visible connections to other cells).
Whole cell currents were measured with HEKA EPC-10 amplifiers using PatchMaster software or by using the high throughput QPatch platform (Sophion). Bath solution for all experiments contained (in mM): NaCl 137 mM, KCl 4 mM, CaCl2 1.8 mM, MgCl2 1 mM, HEPES 10 mM, D-Glucose 10 mM, pH (NaOH) 7.4. In some cases 0.005% cremophor was also added. Intracellular (pipette) solution contained: KCl 130 mM, MgCl2 1 mM, Mg-ATP 5 mM, HEPES 10 mM, EGTA 5 mM, pH 7.2. During experiments, cells and solutions were maintained at room temperature (19° C.-30° C.). For manual patch clamp recordings, cell culture dishes were placed on the dish holder of the microscope and continuously perfused (1 ml/min) with bath solution. After formation of a Gigaohm seal between the patch electrodes and the cell (-ipette resistance range: 2.5 MΩ-6.0 MΩ; seal resistance range:>1 GΩ) the cell membrane across the pipette tip was ruptured to assure electrical access to the cell interior (whole-cell patch-configuration). For experiments using the QPatch system, cells were transferred as suspension to the QPatch system in the bath solution and automated whole cell recordings were performed.
Cells were voltage clamped at a holding potential of −80 mV. For the analysis of test articles, GABA receptors were stimulated by 2 μM GABA after sequential pre-incubation of increasing concentrations of the test article. Pre-incubation duration was 30 s and the duration of the GABA stimulus was 2s. Test articles were dissolved in DMSO to form stock solutions (10 mM). Test articles were diluted to 0.01, 0.1, 1, and 10 μM in bath solution. All concentrations of test articles were tested on each cell. The relative percentage potentiation was defined as the peak amplitude in response to GABA EC20 in the presence of the test article divided by the peak amplitude in response to GABA EC20 alone, multiplied by 100. For Table 2. GABAA receptors α1β2γ2 and α4β3δ% efficacy: “A” 10-100, “B”>100-500, “C”>500; D indicates the data is not available or has not been determined.

Row | Structure (SMILES) | IC50 [1] [nM] | Emax at 10 µM [2] [%]
1 | CC(C(=O)[C@H]1CC[C@H]2[C@@H]3CC[C@@H]4C[C@](C)(O)CC[C@]4(C)[C@H]3CC[C@]12C)n1nccn1 (stereo in doubt) [Compound 56, (R)-1-((3R,5R,8R,9S,10S,13S,14S,17S)-3-hydroxyl-3,10,13-trimethylhexadecahydro-1H-cyclopenta[a]phenanthren-17-yl)-2-(2H-1,2,3-triazol-2-yl)propan-1-one] | 50 to 100 | 
2 | CO[C@H]1C[C@@]2(C)[C@@H](CC[C@@H]3[C@@H]2CC[C@]2(C)[C@@H](C(=O)CN4CCOCC4)CC[C@@H]32)C[C@@H]1O [Compound 1] |  | 100 to 500
3 | CO[C@H]1C[C@@]2(C)[C@@H](CC[C@@H]3[C@@H]2CC[C@]2(C)[C@@H](C(=O)Cn4ccnn4)CC[C@@H]32)C[C@@H]1O [Compound 3] |  | 100 to 500
4 | CO[C@H]1C[C@@]2(C)[C@@H](CC[C@@H]3[C@@H]2CC[C@]2(C)[C@@H](C(=O)Cn4nccn4)CC[C@@H]32)C[C@]1(C)O [Compound 42] |  | 100 to 500
5 | C[C@@]1(O)CC[C@@]2(C)[C@@H](CC[C@@H]3[C@@H]2CC[C@]2(C)[C@@H](C(=O)Cn4nc5ccc(Cl)c(F)c5n4)CC[C@@H]32)C1 [Compound 112] |  | 100 to 500
6 | COc1ccc2nn(CC(=O)[C@H]3CC[C@H]4[C@@H]5CC[C@H]6C[C@](C)(O)CC[C@]6(C)[C@H]5CC[C@]34C)nc2c1 [Compound 125] |  | 100 to 500
7 | COc1ccc2nnn(CC(=O)[C@H]3CC[C@H]4[C@@H]5CC[C@H]6C[C@](C)(O)CC[C@]6(C)[C@H]5CC[C@]34C)c2c1 [Compound 126] |  | 100 to 500
8 | COc1ccc2c(c1)nnn2CC(=O)[C@H]1CC[C@H]2[C@@H]3CC[C@H]4C[C@](C)(O)CC[C@]4(C)[C@H]3CC[C@]12C [Compound 127] |  | 100 to 500
9 | C[C@@]1(O)CC[C@@]2(C)[C@@H](CC[C@@H]3[C@@H]2CC[C@]2(C)[C@@H](C(=O)Cn4nc5cccc(F)c5n4)CC[C@@H]32)C1 [Compound 128] |  | 100 to 500
10 | C[C@@]1(O)CC[C@@]2(C)[C@@H](CC[C@@H]3[C@@H]2CC[C@]2(C)[C@@H](C(=O)Cn4ccnc4C#N)CC[C@@H]32)C1 [Compound 129] |  | 100 to 500
11 | Cc1cnn(CC(=O)[C@H]2CC[C@H]3[C@@H]4CC[C@H]5C[C@](C)(O)CC[C@]5(C)[C@H]4CC[C@]23C)c1 [Compound 130] |  | 100 to 500
12 | C[C@@]1(O)CC[C@@]2(C)[C@@H](CC[C@@H]3[C@@H]2CC[C@]2(C)[C@@H](C(=O)Cn4cc(C(F)(F)F)cn4)CC[C@@H]32)C1 [Compound 131] |  | 100 to 500
13 | Cc1cn(CC(=O)[C@H]2CC[C@H]3[C@@H]4CC[C@H]5C[C@](C)(O)CC[C@]5(C)[C@H]4CC[C@]23C)cn1 [Compound 135] |  | 100 to 500
14 | Cc1cncn1CC(=O)[C@H]1CC[C@H]2[C@@H]3CC[C@H]4C[C@](C)(O)CC[C@]4(C)[C@H]3CC[C@]12C [Compound 136] |  | 100 to 500
15 | C[C@@]1(O)CC[C@@]2(C)[C@@H](CC[C@@H]3[C@@H]2CC[C@]2(C)[C@@H](C(=O)Cn4cc(Cl)cn4)CC[C@@H]32)C1 [Compound 137] |  | 100 to 500
16 | COC[C@@]1(O)CC[C@@]2(C)[C@@H](CC[C@@H]3[C@@H]2CC[C@]2(C)[C@@H](C(=O)Cn4cc(C(F)(F)F)cn4)CC[C@@H]32)C1 [Compound 140] |  | 100 to 500
17 | COC[C@@]1(O)CC[C@@]2(C)[C@@H](CC[C@@H]3[C@@H]2CC[C@]2(C)[C@@H](C(=O)Cn4ccnc4)CC[C@@H]32)C1 [Compound 141] |  | > 500
18 | CCOc1cnn(CC(=O)[C@H]2CC[C@H]3[C@@H]4CC[C@@H]5C[C@](C)(O)CC[C@]5(C)[C@H]4CC[C@]23C)c1 [Compound 145] |  | > 500

Row | Structure (SMILES) | IC50 [1] [nM] | Emax at 10 µM [2] [%]
19 | Cc1cnn(CC(=O)[C@H]2CC[C@H]3[C@@H]4CC[C@@H]5C[C@](C)(O)CC[C@]5(C)[C@H]4CC[C@]23C)c1 [Compound 147] |  | > 500
20 | COc1cnn(CC(=O)[C@H]2CC[C@H]3[C@@H]4CC[C@H]5C[C@](C)(O)CC[C@]5(C)[C@H]4CC[C@]23C)c1 [Compound 148] |  | 100 to 500
21 | C[C@@]1(O)CC[C@@]2(C)[C@@H](CC[C@@H]3[C@@H]2CC[C@]2(C)[C@@H](C(=O)Cn4cnc(C#N)c4)CC[C@@H]32)C1 [Compound 154] |  | 100 to 500
22 | COC[C@@]1(O)CC[C@@]2(C)[C@@H](CC[C@@H]3[C@@H]2CC[C@]2(C)[C@@H](C(=O)Cn4cc(OC)cn4)CC[C@@H]32)C1 [Compound 158] |  | 100 to 500
23 | CCOc1cnn(CC(=O)[C@H]2CC[C@H]3[C@@H]4CC[C@H]5C[C@@](O)(COC)CC[C@]5(C)[C@H]4CC[C@]23C)c1 [Compound 159] |  | > 500
24 | CNC(=O)c1cnn(CC(=O)[C@H]2CC[C@H]3[C@@H]4CC[C@H]5C[C@@](O)(COC)CC[C@]5(C)[C@H]4CC[C@]23C)c1 [Compound 161] |  | 10 to 100
25 | COC[C@@]1(O)CC[C@@]2(C)[C@@H](CC[C@@H]3[C@@H]2CC[C@]2(C)[C@@H](C(=O)Cn4nc5ccc(Cl)cc5n4)CC[C@@H]32)C1 [Compound 165] |  | 100 to 500
26 | COc1cnn(CC(=O)[C@H]2CC[C@H]3[C@@H]4CC[C@@H]5C[C@](C)(O)CC[C@]5(C)[C@H]4CC[C@]23C)c1 [Compound 166] |  | 100 to 500
27 | C[C@@]1(O)CC[C@@]2(C)[C@H](CC[C@@H]3[C@@H]2CC[C@]2(C)[C@@H](C(=O)Cn4cc(C(N)=O)cn4)CC[C@@H]32)C1 [Compound 167] |  | 100 to 500
28 | CNC(=O)c1cnn(CC(=O)[C@H]2CC[C@H]3[C@@H]4CC[C@@H]5C[C@](C)(O)CC[C@]5(C)[C@H]4CC[C@]23C)c1 [Compound 168] |  | 100 to 500
29 | CN(C)C(=O)c1cnn(CC(=O)[C@H]2CC[C@H]3[C@@H]4CC[C@@H]5C[C@](C)(O)CC[C@]5(C)[C@H]4CC[C@]23C)c1 [Compound 169] |  | 100 to 500
30 | CC(=O)Nc1cnn(CC(=O)[C@H]2CC[C@H]3[C@@H]4CC[C@@H]5C[C@](C)(O)CC[C@]5(C)[C@H]4CC[C@]23C)c1 [Compound 171] |  | 100 to 500
31 | Cc1cn(CC(=O)[C@H]2CC[C@H]3[C@@H]4CC[C@@H]5C[C@](C)(O)CC[C@]5(C)[C@H]4CC[C@]23C)cn1 [Compound 172] |  | 100 to 500
32 | CC(C)Oc1cnn(CC(=O)[C@H]2CC[C@H]3[C@@H]4CC[C@@H]5C[C@](C)(O)CC[C@]5(C)[C@H]4CC[C@]23C)c1 [Compound 173] |  | 100 to 500
33 | Cc1nccn1CC(=O)[C@H]1CC[C@H]2[C@@H]3CC[C@@H]4C[C@](C)(O)CC[C@]4(C)[C@H]3CC[C@]12C [Compound 174] |  | 100 to 500
34 | COC[C@@]1(O)CC[C@@]2(C)[C@@H](CC[C@@H]3[C@@H]2CC[C@]2(C)[C@@H](C(=O)Cn4cnc(C#N)c4)CC[C@@H]32)C1 [Compound 178] |  | > 500
35 | C[C@@]1(O)CC[C@@]2(C)[C@@H](CC[C@H]3[C@@H]4CC[C@H](C(=O)Cn5cc(C#N)cn5)[C@@]4(C)CC(=O)[C@@H]32)C1 [Compound 196] |  | 100 to 500
